Results on two molecules are retold here after patent US20220280425A1, “FLAVONOIDS AND LINOLEIC ACID USES IN HYPERTENSION” (King Abdulaziz University, priority 2021, published 2022).

The structures appear in SMILES notation.

The conditions of series [1]: previous report; cited from earlier work.
Series [2] deals with angiotensin model of hypertensive rats. As to the kind of experiment: Electrocardiogram (ECG) recording in angiotensin II acute hypertension model. The class given is in vivo, male Wistar rats. The note with it: IV formulation. The protocol:
(§1) Six-week-old male Wistar rats with a weight of (250-275 g) were obtained from Zagazig University. They were kept in clear cages made of polypropylene and with good ventilation (3-4 rats in each cage), under constant environmental conditions of 22±2° C. temperature, 50-60% relative humidity and 12-h day and night cycle. Unlimited rodent pellet food and purified water were provided to the rats. The experimental design and animal handling procedures were as indicated by the guidelines of the Ethical Committee for Animal Handling at Zagazig University.
A Powerlab® system (AD Instruments, Bella Vista, Australia) linked to a computer running the LabChart professional software with the ECG module was employed to record the standard surface ECG according to the methodology outlined in a previous report by our group. The ECG module quantitatively assesses the various elements of the ECG.
(§2) After 10 min (stabilization period) of basal recording of invasive blood pressure and ECG, angiotensin II (120 ng/min/kg) was slowly infused through the femoral vein using syringe pump and continued throughout the experiment duration.
(§3) Invasive blood hemodynamics and ECG were continuously recorded throughout the experiment. Saline (0.3 ml) was injected in time control experiments.
(§4) Values of the present study presented in form of mean ±SEM. Statistical analysis was carried out using the Prism 5 computer program (Graph Pad, USA). Statistical comparison was done using repeated measures Two way analysis of variance (ANOVA) followed by Bonferroni' post-hoc test of baseline-corrected data and P<0.05 was considered significant.

Series [3] shares this test system. As to the kind of experiment: Invasive blood pressure recording in angiotensin II acute hypertension model. The settings on record: for anti-hypertensive effect: current study, IV SNEDDS formulation, angiotensin II infused rats. The class given is in vivo, male Wistar rats. The protocol: as §1
The blood pressure was recorded invasively in real. The rats were subjected to anesthesia with single intraperitoneal injection of 100 mg/kg ketamine and 10 mg/kg xylazine. Animals' body temperature was held at 37° C. by means of a rectal probe and automated heating pads. A micro-tip pressure volume catheter (PV catheter, SPR-901, Millar Instruments, Houston, Tex., USA) was inserted via a small opening into the right carotid artery. This instrument can continuously monitor the arterial pressure. The micro-tip catheter was linked via a Power Lab Data Interface to a computer running the Lab Chart professional software (v8.0, AD Instruments, Bella Vista, Australia) incorporating blood pressure (BP) module. Following a stabilization time of 5 min, readings were continuously recorded. The BP module was employed to monitor the systolic and diastolic blood pressure.
as §2, §3, §4

The mark [4] stands for this setting: dose 36 μg/kg, vs vehicle group, p<0.05.
Setting [5] is: IV formulation, 10 min after doses 24 and 36 μg/kg, vs vehicle group, p<0.05.

With `COc1cc(-c2cc(=O)c3c(O)c(OC)c(OC)cc3o2)cc(OC)c1OC` [Compound 1, umuhengerin], the vasodilation activity entry in series [1] was “significant vasodilation activity”. In addition, in series [2] (12, 24, 36 μg/kg), the JT interval entry is “no significant effect”, the P-wave duration result is “did not affect”, the PR interval entry is recorded as “did not affect” and the QTc interval result was “no significant effect”. Also, in series [2] (setting [4]), the R wave amplitude entry is “significant decrease” and the T wave amplitude entry is “increase”. Moreover, the reflex tachycardia result in series [3] (IV SNEDDS containing 10% linoleic acid) is listed as “without reflex tachycardia”. Further, in series [3] (setting [5]), the dicrotic notch pressure entry is “significant reduction” and the pulse pressure result was “significant reduction”. In series [3] (IV formulation, dose 36 μg/kg, vs vehicle group), the non-ejection duration entry was “significant increase”. Besides, the “SDP difference (systolic blood pressure-dicrotic notch pressure difference)” value in series [3] (IV formulation, doses 12, 24 and 36 μg/kg, vs vehicle group, p<0.05) is on record as “significant reduction”. In series [3] (IV formulation, doses 24 and 36 μg/kg, vs vehicle group), the ejection duration result is reported as “significant decrease”. Also, the time to peak entry in series [3] (IV formulation, vs vehicle group) is listed as “no change”. Further, the systolic blood pressure result in series [3] (IV linoleic acid SNEDDS formulation, 12, 24 and 36 μg/kg, 10 min after each dose, p<0.05) is listed as “gradual dose dependent reduction”. Further, the diastolic blood pressure result in series [3] (IV linoleic acid SNEDDS formulation, significant at 24 and 36 μg/kg vs plain IV formulation, p<0.05) was “gradual and reached a plateau with statistical significance”. Moreover, the anti-hypertensive effect entry in series [3] is listed as “observed”. Besides, the heart rate entry in series [3] (medicated IV formulation compared with the plain IV formulation) is “did not produced any further effect”.

As for `COc1ccc(-c2cc(=O)c3c(O)cc(O)cc3o2)cc1OC` [Compound 4, luteolin-3′,4′ -dimethyl ether], in series [1], the vasodilation activity entry is given as “significant vasodilation activity”. In series [3], the anti-hypertensive effect result is “lack of antihypertensive efficacy”.
